Like-named read-outs stand apart in the source and are kept apart here.
Experiments:
[1] = target: human norepinephrine transporter (Homo sapiens (Human), UniProt P23975); test: Human NET (norepinephrine transporter) uptake assay; assay type: cell-based; conditions: for Ki: read-out: hNET Ki; for potency at hNET relative to the other enantiomer or epimer: comparison in words, used to assign configuration
Procedure: This protocol was designed to measure inhibition of uptake by the human norepinephrine transporter. […] The Assay Buffer (AB) was 1×HBSS and 0.02 M HEPES.
(§1) The HEK293F cells were transfected with the human norepinephrine transporter and frozen in 1 mL aliquots at about 1E+07 cells/mL. On the day of the experiment, the cells were removed from −80° C. or liquid nitrogen and thawed in a room temperature water bath. The cells were dilute to about 1-2E+06 with Freestyle medium. A 1 mL sample (1:2 dilution) was prepared, and the cells were counted. The cells were spun at 1100 rpm for 5 minutes, and the medium was aspirated off. The cells were resuspend in medium at 1.5E+06 cells/mL for about 60,000 cells per well. 40 μL of cells were dispensed per well in the Biocoat plates. The plates were spun at 1100 rpm for 1 minute to improve homogeneity of the cell layer and were incubated at 37° C. for a minimum of 3 hours.
(§2) 12 μL of test compound (10 mM) in DMSO was added to the wells, and nomifensine was used as a control. […] The neurotransmitter transporter dye was prepared in AB prior to use.
(§3) Due to the proprietary nature of the dye formulation, all dye concentrations were expressed as a percentage of the vendor-recommended dye reconstitution. Thus, the above calculations were valid when both [dye] and Km were expressed in the same units (%). Compounds were tested in triplicate (n=3).

[2] = target: human dopamine transporter (Homo sapiens (Human), UniProt Q01959); test: Human DAT (dopamine transporter) uptake assay; assay type: cell-based; conditions: read-out: hDAT Ki
Procedure: This protocol was designed to measure inhibition of uptake by the human dopamine transporter. […] The Assay Buffer (AB) was 1×HBSS and 0.02 M HEPES.
as §1, with “dopamine” for “norepinephrine”
as §2
Due to the proprietary nature of the dye formulation, all dye concentrations were expressed as a percentage of the vendor-recommended dye reconstitution. Thus, the above calculations were valid when both [dye] and K1 were expressed in the same units (%). Compounds were tested in triplicate (n=3).

[3] = target: human serotonin transporter (Homo sapiens (Human), UniProt P31645); test: Human SERT (serotonin transporter) uptake assay; assay type: cell-based; conditions: read-out: hSERT Ki
Procedure: This protocol was designed to measure inhibition of uptake by the human serotonin transporter. […] The Assay Buffer (AB) was […] and 0.02 M HEPES.
as §1, with “serotonin” for “norepinephrine”
12 μL of test compound (10 mM) in DMSO was added to the wells, and nomifensine was used as a control. Fluoxetine (final assay concentration of 10 μM) was used for background signal. The neurotransmitter transporter dye was prepared in AB prior to use.
as §3

[4] = pKa of basic centres (Table 1); assay type: physicochemical
[5] = first base, e.g., an aliphatic primary, secondary, or tertiary amine, read-out: pKa (Base 1)
[6] = second base in the same molecule (if present), read-out: pKa (Base 2)

human norepinephrine transporter, sequence (P23975 whole entry): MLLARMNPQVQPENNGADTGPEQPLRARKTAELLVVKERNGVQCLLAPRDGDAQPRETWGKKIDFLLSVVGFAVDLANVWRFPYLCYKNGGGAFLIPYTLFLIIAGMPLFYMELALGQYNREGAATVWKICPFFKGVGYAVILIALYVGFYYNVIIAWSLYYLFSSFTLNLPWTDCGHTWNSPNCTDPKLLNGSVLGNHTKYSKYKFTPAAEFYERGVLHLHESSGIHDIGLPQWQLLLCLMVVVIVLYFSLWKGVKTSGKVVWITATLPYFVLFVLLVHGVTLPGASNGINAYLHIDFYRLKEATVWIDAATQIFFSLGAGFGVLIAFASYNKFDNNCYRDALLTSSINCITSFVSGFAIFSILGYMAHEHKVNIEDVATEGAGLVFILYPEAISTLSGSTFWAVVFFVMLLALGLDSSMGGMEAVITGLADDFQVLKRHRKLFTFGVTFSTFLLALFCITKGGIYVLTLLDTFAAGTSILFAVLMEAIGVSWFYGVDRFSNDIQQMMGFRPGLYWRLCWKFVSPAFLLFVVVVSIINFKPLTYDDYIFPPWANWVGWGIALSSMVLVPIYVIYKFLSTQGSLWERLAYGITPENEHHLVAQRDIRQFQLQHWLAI
human dopamine transporter, sequence (Q01959 whole entry): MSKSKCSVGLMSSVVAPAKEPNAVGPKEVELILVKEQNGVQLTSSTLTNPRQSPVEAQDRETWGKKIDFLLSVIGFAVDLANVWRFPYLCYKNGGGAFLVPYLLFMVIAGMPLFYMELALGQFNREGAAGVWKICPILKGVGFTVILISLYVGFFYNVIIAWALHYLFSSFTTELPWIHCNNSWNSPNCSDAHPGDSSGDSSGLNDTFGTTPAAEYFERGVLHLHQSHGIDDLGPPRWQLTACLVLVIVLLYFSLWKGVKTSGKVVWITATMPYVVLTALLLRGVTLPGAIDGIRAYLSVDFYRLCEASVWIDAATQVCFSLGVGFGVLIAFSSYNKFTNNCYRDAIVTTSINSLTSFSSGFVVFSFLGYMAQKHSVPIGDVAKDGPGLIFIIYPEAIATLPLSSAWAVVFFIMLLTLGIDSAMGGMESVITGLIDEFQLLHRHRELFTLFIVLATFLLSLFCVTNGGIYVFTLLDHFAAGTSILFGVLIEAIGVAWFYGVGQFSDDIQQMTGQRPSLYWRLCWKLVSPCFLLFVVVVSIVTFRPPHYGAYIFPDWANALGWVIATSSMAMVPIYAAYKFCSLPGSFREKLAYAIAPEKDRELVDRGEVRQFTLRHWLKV
human serotonin transporter, sequence (P31645 whole entry): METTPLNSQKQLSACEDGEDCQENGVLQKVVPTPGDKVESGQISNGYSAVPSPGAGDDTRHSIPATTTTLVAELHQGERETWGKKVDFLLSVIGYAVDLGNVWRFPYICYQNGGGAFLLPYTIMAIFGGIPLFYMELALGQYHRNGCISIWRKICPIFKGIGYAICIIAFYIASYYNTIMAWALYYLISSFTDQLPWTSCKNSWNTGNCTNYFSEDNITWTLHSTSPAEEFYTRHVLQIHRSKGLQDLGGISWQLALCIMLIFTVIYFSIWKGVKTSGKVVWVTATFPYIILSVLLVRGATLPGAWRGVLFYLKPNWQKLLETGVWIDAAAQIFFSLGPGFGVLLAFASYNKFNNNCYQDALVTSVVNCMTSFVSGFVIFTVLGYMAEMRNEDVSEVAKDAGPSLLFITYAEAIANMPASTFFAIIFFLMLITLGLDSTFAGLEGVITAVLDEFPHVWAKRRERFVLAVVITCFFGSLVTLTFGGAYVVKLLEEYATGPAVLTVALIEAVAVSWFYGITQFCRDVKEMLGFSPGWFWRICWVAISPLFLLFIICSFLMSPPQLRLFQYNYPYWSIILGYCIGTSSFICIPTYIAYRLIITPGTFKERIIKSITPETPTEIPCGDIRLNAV

Ki [2]	Ki [3]	pKa [4, 5]	potency at hNET relative to the other enantiomer or epimer [1]	Structure (SMILES)	other results
113 nM	10 nM	9.7		CNC[C@@H](c1ccc2ccccc2c1)[C@@H](O)c1cccs1 [Compound 144]	
			more potent	CNC[C@H](c1ccc(Cl)c(Cl)c1)[C@@H](O)c1ccccc1[N+](=O)[O-] [compound 65]	
			more potent	CNCC(Cc1cccnc1)c1ccc2ccccc2c1 (stereo not drawn) [compound 48]	
			more potent	CNC[C@H](c1ccc2ccccc2c1)[C@H](O)c1ccccc1F [compound 15]	
			greater hNET potency	CNC[C@H](c1ccc(Cl)c(Cl)c1)[C@H](O)c1ccccc1OC [compound 160]	
			less potent	CNC[C@@H](c1ccc(Cl)c(Cl)c1)[C@@H](O)c1ccccc1[S+](C)[O-] (stereo partly drawn) [compound 128]	
			greater potency	CNC[C@H](c1ccc(Cl)c(Cl)c1)[C@H](O)c1ccccc1I [compound 164]	
			more potent	CNC[C@H](c1ccc(Cl)c(Cl)c1)[C@H](O)c1ccccc1 [compound 10]	
			lower inhibitory activity	CNC[C@@H](c1ccc(Cl)c(Cl)c1)[C@@H](O)c1cccc(N2CCOCC2)c1 [compound 125]	
			higher potency	CNC[C@H](c1ccc(Cl)c(Cl)c1)[C@@H](O)c1cccc(I)c1 [compound 165]	
			lower potency	CNC[C@@H](c1ccc(Cl)c(Cl)c1)[C@@H](O)c1cncc(OC)c1 [compound 109]	
			less potent	CNC[C@@H](c1ccc(Cl)c(Cl)c1)[C@@H](OC)c1cccc(NS(=O)(=O)C(F)(F)F)c1 [compound 172]	

Second part, the compound before the results:

Structure (SMILES)	Ki [2]	Ki [3]	pKa [4, 5]	potency at hNET relative to the other enantiomer or epimer [1]	other results
CNC[C@H](c1ccc2ccccc2c1)[C@H](O[C@H](C)C(=O)N1CCCC1)c1ccccc1 [Compound 81]	1360 nM	13 nM	9.6		Ki [1]: 14.7 nM
CNCC(c1ccc2ccccc2c1)C(OC)c1ccccc1 (stereo not drawn) [Compound 38]	49.9 nM	16.9 nM	9.7		Ki [1]: 3.1 nM
NC[C@@H](c1ccc2ccccc2c1)[C@@H](O)c1ccccc1 [Compound 88]	80.4 nM		8.7		
NCC(Cc1ccccc1F)c1ccc2ccccc2c1 (stereo not drawn) [Compound 137]	77.7 nM	31.8 nM	9.3		
CNCC(Cc1ccccc1F)c1ccc2ccccc2c1 (stereo not drawn) [Compound 17]			10		
CNC[C@@H](Cc1cccnc1)c1ccc(Cl)c(Cl)c1 [Compound 59]	112 nM	35.6 nM	9.6		pKa [4, 6]: 5.2
CNCCC(Oc1ccccc1OC)c1ccccc1 (stereo not drawn) [compound 177]		54.4 nM			
CNCC(Cc1ccccc1F)c1ccc2ccccc2c1 (racemic) [Compound 36]			10		
NCC(c1ccc2ccccc2c1)[C@@H](O)c1ccccc1 (stereo partly drawn) [Compound 91]	249 nM		8.7		
CNC[C@H](c1ccc2ccccc2c1)[C@H](O)c1cccs1 [Compound 47]	15 nM	2.2 nM	9.7		
CNC[C@H](c1ccc2ccccc2c1)[C@H](OCC(=O)N1CC[C@H](OC)C1)c1ccccc1 [Compound 131]			9.6		
CNC[C@@H](c1ccc(Cl)c(Cl)c1)[C@@H](O)c1ccsc1 [compound 106]				lower potency	
CNC[C@@H](c1ccc(Br)c(Cl)c1)[C@@H](O)c1ccccc1 [compound 110]				lower potency	
CNC[C@H](Cc1cccnc1)c1ccc(Cl)c(Cl)c1 [Compound 115]	127 nM	642 nM	9.6		pKa [4, 6]: 5.2
CNC[C@H](Cc1ccccc1F)c1ccc2ccccc2c1 [Compound 138]			10		
CNCC(Cc1cccnc1)c1ccc(Cl)c(Cl)c1 (racemic) [Compound 80]	52.2 nM	34.7 nM	9.6		pKa [4, 6]: 5.2
